pIC50: −log10 of the molar value.

Sequence of Rho-associated protein kinase 2 (O75116 whole entry): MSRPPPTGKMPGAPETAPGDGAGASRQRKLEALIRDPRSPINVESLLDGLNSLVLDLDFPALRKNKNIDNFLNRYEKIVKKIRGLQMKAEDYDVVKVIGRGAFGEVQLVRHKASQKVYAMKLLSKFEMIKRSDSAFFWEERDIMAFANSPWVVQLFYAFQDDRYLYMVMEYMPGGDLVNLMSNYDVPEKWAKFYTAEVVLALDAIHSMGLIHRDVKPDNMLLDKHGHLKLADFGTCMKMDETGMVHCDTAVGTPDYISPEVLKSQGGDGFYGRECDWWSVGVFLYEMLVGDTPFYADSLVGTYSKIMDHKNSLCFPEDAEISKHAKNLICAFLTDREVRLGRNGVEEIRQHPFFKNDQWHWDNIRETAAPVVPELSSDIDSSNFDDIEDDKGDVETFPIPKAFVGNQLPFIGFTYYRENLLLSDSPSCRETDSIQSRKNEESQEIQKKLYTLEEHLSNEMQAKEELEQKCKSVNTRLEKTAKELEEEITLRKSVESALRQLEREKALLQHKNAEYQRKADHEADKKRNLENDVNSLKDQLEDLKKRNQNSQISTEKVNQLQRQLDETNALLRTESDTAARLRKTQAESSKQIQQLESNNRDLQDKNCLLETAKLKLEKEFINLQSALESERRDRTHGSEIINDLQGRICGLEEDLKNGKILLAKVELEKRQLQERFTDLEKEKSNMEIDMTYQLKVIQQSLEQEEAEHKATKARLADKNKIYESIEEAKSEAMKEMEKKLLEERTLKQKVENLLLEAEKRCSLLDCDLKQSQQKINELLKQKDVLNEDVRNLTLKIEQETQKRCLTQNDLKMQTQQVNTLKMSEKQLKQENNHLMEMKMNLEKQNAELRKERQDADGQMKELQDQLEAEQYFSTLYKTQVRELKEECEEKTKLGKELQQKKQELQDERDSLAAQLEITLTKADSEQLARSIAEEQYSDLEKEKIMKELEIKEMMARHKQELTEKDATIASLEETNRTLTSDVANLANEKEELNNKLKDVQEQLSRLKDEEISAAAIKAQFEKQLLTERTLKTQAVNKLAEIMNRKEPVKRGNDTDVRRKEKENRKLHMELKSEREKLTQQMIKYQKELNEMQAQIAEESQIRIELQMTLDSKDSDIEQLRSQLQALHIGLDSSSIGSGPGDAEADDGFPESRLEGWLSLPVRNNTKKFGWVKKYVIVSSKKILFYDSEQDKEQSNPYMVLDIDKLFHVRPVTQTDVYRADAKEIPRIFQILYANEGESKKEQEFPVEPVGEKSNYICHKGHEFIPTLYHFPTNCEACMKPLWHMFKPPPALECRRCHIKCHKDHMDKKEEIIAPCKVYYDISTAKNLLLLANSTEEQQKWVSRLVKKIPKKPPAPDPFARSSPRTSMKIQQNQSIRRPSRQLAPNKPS

The first test has as its target Rho-associated protein kinase 2 (Homo sapiens, UniProt O75116). The test is described as follows: Inhibition of ROCK2 (unknown origin) using STK2 substrate after 4 hrs by HTRF mode.
Compound `COc1cccc(CNC(=O)Nc2ccc(-c3ncnc4[nH]ccc34)cc2)c1` gave a pIC50 of 6.73.

`CNC(=O)N(C)c1ccc(-c2cn[nH]c2)cc1` gave a pIC50 of 7.06.

Compound `CNC(=O)N(CCO)c1ccc(-c2cn[nH]c2)cc1` gave a pIC50 of 6.21.

Consider `CNC(=O)N(CCN(C)C)c1ccc(-c2cn[nH]c2)cc1`, for which the pIC50 was 5.53.

`CNC(=O)N(CCCN(C)C)c1ccc(-c2cn[nH]c2)cc1` showed a pIC50 of 5.48.

On to `O=C(Nc1ccc(-c2cn[nH]c2)cc1OCCO)N(CCO)Cc1ccccc1`, for which the pIC50 was over 9.00.

On to `CN(C)CCOc1cc(-c2cn[nH]c2)ccc1NC(=O)N(CCN(C)C)Cc1ccccc1`, for which the pIC50 was 6.77.

The compound `CN(C)CCSc1cc(-c2cn[nH]c2)ccc1NC(=O)NCc1ccccc1` had a pIC50 of 8.25.

For the compound `CN(C)CCN(C)c1cc(-c2cn[nH]c2)ccc1NC(=O)NCc1ccccc1`, the pIC50 is 8.07.

Regarding `CC(C)N(Cc1ccccc1)C(=O)Nc1ccc(-c2cn[nH]c2)cc1`, the pIC50 is 8.10.

Tested on in a further test: not listed separately
The test is described as follows: Inhibition of recombinant human full length PKA using kemptide substrate after 80 mins by luminescence mode.
Turning to `O=C(Nc1ccc(-c2cn[nH]c2)cc1)N(CCO)Cc1ccccc1`, the pIC50 was 6.21.

Take `O=C(Nc1ccc(-c2cn[nH]c2)cc1)NC(CCO)c1cccc(F)c1` (stereo unspecified): the pIC50 was 6.24.

Consider `O=C(Nc1ccc(-c2cn[nH]c2)cc1)NC(CCO)c1ccccc1` (stereo unspecified), for which the pIC50 was 6.36.

Turning to `O=C(Nc1ccc(-c2cn[nH]c2)cc1)NC(CO)c1ccccc1` (stereo unspecified), the pIC50 is 6.41.

`CN(C)CCC(NC(=O)Nc1ccc(-c2cn[nH]c2)cc1)c1ccccc1` (stereo unspecified): the pIC50 is 6.62.

Turning to `CCN(Cc1cccc(OC)c1)C(=O)Nc1ccc(-c2cn[nH]c2)cc1O[C@H]1CCN(C)C1`, the pIC50 is 5.17.

With `COc1cccc(CN(C(=O)Nc2ccc(-c3cn[nH]c3)cc2)C(C)C)c1`, the pIC50 was 4.73.

Turning to `COc1cccc(CN(CCO)C(=O)Nc2ccc(-c3cn[nH]c3)cc2)c1`, the negative-log IC50 (pIC50) was 5.52.

With `COCCN(Cc1cccc(OC)c1)C(=O)Nc1ccc(-c2cn[nH]c2)cc1`, the negative logarithm of the IC50 (pIC50) was 4.98.

As for `COc1cccc(CN(CCN)C(=O)Nc2ccc(-c3cn[nH]c3)cc2)c1`, the pIC50 is 7.14.

Turning to `COc1cccc(CN(CCN(C)C)C(=O)Nc2ccc(-c3cn[nH]c3)cc2)c1`, the pIC50 was 6.34.

For the compound `COc1cccc(CN(CCN2CCCC2)C(=O)Nc2ccc(-c3cn[nH]c3)cc2)c1`, the pIC50 is 6.27.

With `COc1cccc(CN(CCCN2CCCC2)C(=O)Nc2ccc(-c3cn[nH]c3)cc2)c1`, the pIC50 was 6.64.

Turning to `COc1cccc(CN(CCN2CCOCC2)C(=O)Nc2ccc(-c3cn[nH]c3)cc2)c1`, the pIC50 was 5.42.

For the compound `COc1cccc(CN(CCCN2CCOCC2)C(=O)Nc2ccc(-c3cn[nH]c3)cc2)c1`, the pIC50 is 6.14.

As for `COc1cccc(CN(CCN2CCCCC2)C(=O)Nc2ccc(-c3cn[nH]c3)cc2)c1`, the pIC50 was 6.47.

Regarding `COc1cccc(CN(CCCN2CCCCC2)C(=O)Nc2ccc(-c3cn[nH]c3)cc2)c1`, the pIC50 was 6.09.

`O=C(Nc1ccc(-c2cn[nH]c2)cc1F)N(CCO)Cc1ccccc1`: the pIC50 is 5.99.

Take `COc1cccc(C(CCO)NC(=O)Nc2ccc(-c3cn[nH]c3)cc2)c1` (stereo unspecified): the pIC50 was 5.31.

For `O=C(NCCc1ccccc1)Nc1ccc(-c2cn[nH]c2)cc1`, the pIC50 was 5.51.

Regarding `O=C(NCCCc1ccccc1)Nc1ccc(-c2cn[nH]c2)cc1`, the pIC50 is under 4.70.

For the compound `O=C(Nc1ccc(-c2cn[nH]c2)cc1)N1CCc2ccccc2C1`, the pIC50 is 5.10.

As for `O=C(NCC1CCCCC1)Nc1ccc(-c2cn[nH]c2)cc1`, the pIC50 is under 4.70.

Regarding `COc1cccc(CNC(=O)Nc2ccc(-c3cn[nH]c3)cc2)c1OC`, the pIC50 is under 4.70.

For `COc1ccc(CNC(=O)Nc2ccc(-c3cn[nH]c3)cc2)c(OC)c1`, the pIC50 is 4.95.

On to `COc1ccc(OC)c(CNC(=O)Nc2ccc(-c3cn[nH]c3)cc2)c1`, for which the pIC50 was under 4.70.

For the compound `COc1cccc(OC)c1CNC(=O)Nc1ccc(-c2cn[nH]c2)cc1`, the pIC50 is 4.87.

As to `COc1ccc(CNC(=O)Nc2ccc(-c3cn[nH]c3)cc2)cc1OC`, the pIC50 is under 4.70.

Regarding `COc1cc(CNC(=O)Nc2ccc(-c3cn[nH]c3)cc2)cc(OC)c1`, the pIC50 is under 4.70.

Regarding `COc1ccc(CNC(=O)Nc2ccc(-c3cn[nH]c3)cc2)cc1F`, the pIC50 is 6.29.

As for `COc1cccc(CN(C)C(=O)Nc2ccc(-c3cn[nH]c3)cc2)c1`, the pIC50 is 5.74.

For `CCN(Cc1cccc(OC)c1)C(=O)Nc1ccc(-c2cn[nH]c2)cc1`, the pIC50 was 5.33.

Consider `COc1cccc(CN(C(=O)Nc2ccc(-c3cn[nH]c3)cc2)C2CC2)c1`, for which the negative logarithm of the IC50 (pIC50) was 5.77.

As for `COc1ccccc1CNC(=O)Nc1ccc(-c2cn[nH]c2)cc1`, the pIC50 is 6.18.

In the case of `Cc1cccc(CNC(=O)Nc2ccc(-c3cn[nH]c3)cc2)c1`, the pIC50 is 5.58.

Regarding `Nc1cccc(CNC(=O)Nc2ccc(-c3cn[nH]c3)cc2)c1`, the pIC50 was 6.39.

For `O=C(NCc1cccc(Cl)c1)Nc1ccc(-c2cn[nH]c2)cc1`, the pIC50 is 6.34.

Turning to `O=C(NCc1cccc(F)c1)Nc1ccc(-c2cn[nH]c2)cc1`, the pIC50 is 6.49.

Turning to `COc1cccc(CNC(=O)Nc2ccc(-c3c[nH]nc3C)cc2)c1`, the pIC50 is 6.09.

For `COc1cccc(CNC(=O)Nc2ccc(-c3ccncc3)cc2)c1`, the pIC50 is 5.64.

As for `COc1cccc(CNC(=O)Nc2ccc(-c3ccnc(N)n3)cc2)c1`, the pIC50 is 5.99.

As to `COc1cccc(CNC(=O)Nc2ccc(-c3ccnc(N)c3)cc2)c1`, the pIC50 is 5.29.

Turning to `COc1cccc(CNC(=O)Nc2ccc(-c3ncnc4[nH]ccc34)cc2)c1`, the pIC50 was 6.13.

In the case of `COc1cccc(CNC(=O)Nc2ccc(-c3cn[nH]c3)cc2N(C)C)c1`, the pIC50 is 7.42.

`COc1cccc(CNC(=O)Nc2ccc(-c3cn[nH]c3)cc2OC)c1`: the pIC50 was 6.79.

As for `COc1cccc(CNC(=O)Nc2ccc(-c3cn[nH]c3)cc2Cl)c1`, the pIC50 was 6.50.

Take `COc1cccc(CNC(=O)Nc2ccc(-c3cn[nH]c3)cc2F)c1`: the pIC50 is 5.74.

As to `COc1cccc(CNC(=O)Nc2ccc(-c3cn[nH]c3)cc2OCCN(C)C)c1`, the pIC50 was 5.41.

Take `COc1cccc(CNC(=O)Nc2ccc(-c3cn[nH]c3)cc2OCCN2CCCC2)c1`: the pIC50 was 5.56.

Take `COc1cccc(CNC(=O)Nc2ccc(-c3cn[nH]c3)cc2N(C)CCN(C)C)c1`: the pIC50 is 5.45.

Turning to `COc1cccc(CN(C)C(=O)Nc2ccc(-c3cn[nH]c3)cc2OCCN(C)C)c1`, the pIC50 is 5.28.

As for `COc1cccc(CN(C)C(=O)Nc2ccc(-c3cn[nH]c3)cc2OCCN2CCCC2)c1`, the pIC50 is under 4.70.

For the compound `COc1cccc(CN(C)C(=O)Nc2ccc(-c3cn[nH]c3)cc2N(C)CCN(C)C)c1`, the pIC50 was 5.34.

Consider `CCN(Cc1cccc(OC)c1)C(=O)Nc1ccc(-c2cn[nH]c2)cc1OCCN(C)C`, for which the pIC50 is under 4.70.

With `CCN(Cc1cccc(OC)c1)C(=O)Nc1ccc(-c2cn[nH]c2)cc1OCCN1CCCC1`, the pIC50 was 4.74.

For the compound `CCN(Cc1cccc(OC)c1)C(=O)Nc1ccc(-c2cn[nH]c2)cc1N(C)CCN(C)C`, the pIC50 is 5.30.

Regarding `O=C(NCc1ccccc1)Nc1ccc(-c2cn[nH]c2)cc1`, the pIC50 was 6.23.

In the case of `COc1cccc(CNC(=O)Nc2ccc(-c3cn[nH]c3)cc2)c1`, the pIC50 was 6.05.

For the compound `CNC(=O)N(C)c1ccc(-c2cn[nH]c2)cc1`, the pIC50 was under 4.70.

In the case of `CNC(=O)N(CCO)c1ccc(-c2cn[nH]c2)cc1`, the pIC50 is under 4.70.

As to `CNC(=O)N(CCN(C)C)c1ccc(-c2cn[nH]c2)cc1`, the pIC50 was 5.38.

Turning to `CNC(=O)N(CCCN(C)C)c1ccc(-c2cn[nH]c2)cc1`, the pIC50 is 4.92.

As for `O=C(Nc1ccc(-c2cn[nH]c2)cc1OCCO)N(CCO)Cc1ccccc1`, the pIC50 was 6.21.

For the compound `CN(C)CCSc1cc(-c2cn[nH]c2)ccc1NC(=O)NCc1ccccc1`, the pIC50 was 6.33.

On to `CN(C)CCN(C)c1cc(-c2cn[nH]c2)ccc1NC(=O)NCc1ccccc1`, for which the pIC50 was 6.05.

As to `CC(C)N(Cc1ccccc1)C(=O)Nc1ccc(-c2cn[nH]c2)cc1`, the pIC50 was 5.47.
